Measured values from publication PMC8648872, “A host-directed macrocyclic peptide therapeutic for MDR gram negative bacterial infections” (Scientific Reports, 2021).
Where a SMILES comes first, the peptide text is derived from it. Bridges are numbered along the chain shown (N, C = ends).

Key:
human whole blood = experiment: Cytokine release by human whole blood incubated with live Kp-1705; type: cell-based; conditions: human whole blood 1:10 in RPMI-1640, 1000 CFU/ml Kp-1705, 4 h, 37 °C, ELISA
Experimental: Log-phase […] grown in TSB were pelleted, washed twice in PBS, and suspended to 1 × 10^5 CFU/ml in RPMI-1640. EDTA-anticoagulated blood collected from a healthy adult human donor was incubated at a final dilution of 1:10 in RPMI-1640 with 1000 CFU/ml of Kp-1705 and varied concentrations of MTD12813 for 4 h 37 °C in 5% CO2 with gentle rocking. Incubation supernatants were frozen at − 80 °C. TNF and IL-6 were quantified by ELISA (Invitrogen KHC3011, KHC0061).

[1] = Peptide stability in human EDTA plasma; type: in vitro ADME; conditions: 90% (vol/vol) human EDTA-plasma, 37 °C, C18 RP-UPLC with PDA detector, read-out: peptide remaining intact
Experimental: MTD12813 (final concentration of 100 µg/ml) was added to either 90% human EDTA plasma or 90% human serum and incubated at 37 °C for 48 h. Samples were processed by addition of 10% HOAc and 5% ACN (final concentrations) at time 0 and 48 h, and MTD12813 was quantified by C18 RP-HLPC on an Acquity H-Class UPLC with an analytical PDA detector using Empower 3 software (Waters). All samples were performed with technical replicates and analyzed by UPLC in duplicate and the experiment repeated once. […] A time 0 h sample was collected, and the remaining suspension incubated at 37 °C for 24 h. Samples were processed by addition of 5% formic acid/5% acetonitrile, vortexed, and clarified at 22,000×g for 10 min. Supernatant MTD12813 was then quantified by LC–MS/MS as described in PK section above. All samples were performed with technical replicates and analyzed by LC–MS/MS in duplicate.

[2] = tested on: CRE and non-CRE strains of K. pneumoniae and E. coli; type: cell-based; conditions: standard CLSI assay conditions
Experimental: Bacterial strains were obtained from American Type Culture Collection. K. pneumoniae strains included BAA-1705 (blaKPC-2, hypermucoid), BAA-2146 (blaNDM-1), BAA-700603 (SHV-18, extended spectrum β-lactamase, ESBL), and BAA-1706 (non-CRE reference strain). E. coli strains included BAA-2340 (blaKPC-2), BAA-2471 (blaNDM-1), and ML35 (non-CRE reference strain).
Minimum inhibitory concentration (MIC) assays were performed ± 50% heat-inactivated mouse serum using Clinical and Laboratory Standards Institute (CLSI; document M07-A9) protocols. Bacteria (5 × 10^5 CFU/ml) were incubated with antibiotics or peptide for 20 h at 37 °C, and bacterial growth was determined by A620 using a SpectraMax M5e plate reader.

plasma cytokines = experiment: Plasma multiplex cytokine analysis in Kp-1705 sepsis; type: in vivo, BALB/c mice; conditions: 1.25 mg/kg i.p. 1 h p.i.
Experimental: (§1) EDTA-anticoagulated blood was collected aseptically by terminal cardiac puncture and analyzed for complete blood cell count using an Element HT5 hematology analyzer (Heska). Blood plasma and clarified peritoneal lavage were prepared by two-step centrifugation described previously. Plasma cytokine levels were quantified using a mouse-specific MILLIPLEX MAP kit (Millipore Cat# MCYTMAG-70K) as described.
Supplemental Table 1. Mice were challenged i.p. with Kp-1705 and treated 1 h later with MTD12813 (1.25 mg/kg i.p.) or saline. The sham cohort received bacteria-free suspension buffer at t=0 followed by saline 1 h later. Mice were euthanized 2, 4, or 24 h p.i., and plasma samples were subjected to multiplex cytokine analysis. P values calculated using ANOVA with Uncorrected Fisher’s LSD comparing saline and MTD12813 treated mice at respective time points.

Kp-1705 = experiment: Challenge with MTD12813-preincubated Kp-1705, survival; type: in vivo, BALB/c mice
Experimental: Cryopreserved Kp-1705 was suspended in PBS to a density of ca. 1 × 10^9 CFU/ml, and incubated with saline or 1.25 µg/ml MTD12813 at room temperature for 1 h. Mice (n = 26) were then infected i.p. with 500 µl of saline- or MTD12813- pretreated Kp-1705, and a third cohort (n = 12) received 500 µl i.p. of 1.25 µg/ml MTD12813 immediately following infection with saline treated Kp-1705. Five mice from each cohort were euthanized 4 h p.i., and peritoneal lavage was collected for bacterial burden determination and cytospin preparation. In vitro antibacterial activity of MTD12813 (1.25 μg/ml) -treated cells (1 h; 37 °C) was determined by plating saline or peptide treated cells on TSA plates. Growth kinetics of saline and MTD12813-treated cells was determined by diluting samples from the 1 h incubation mixtures 1:40 into TSB and monitoring growth (620 nm) for 5.5 h at 37 °C. Antibacterial activity of MTD12813 in PF was determined by i.p. injection of naïve male BALB/c mice (n = 5 per group) with 1.25 mg/kg of MTD12813 or saline i.p. (10 ml/kg). […] Peritoneal fluid was clarified by centrifugation at 1200×g and an aliquot used to quantify MTD12813 by LC–MS/MS, as described above. Antimicrobial activity was determined by incubating PF (9:1 vol/vol) with Kp-1705 at a final density of 3 × 10^7 CFU/ml. […]

neutrophils = experiment: Neutrophil recruitment (peritoneal lavage and blood); type: in vivo, BALB/c mice
Experimental: Blood, peritoneal lavage fluid, and spleen homogenates were obtained from mice following by CO2 euthanasia. Citrate-anti-coagulated blood was collected by aseptic cardiac puncture. Peritoneal lavage was performed by injecting 3 ml of PBS into the peritoneal cavity, massaging the abdomen, and then collecting fluid aseptically through a minor incision in the abdominal wall. Spleen was surgically removed and homogenized in sterile PBS using Polytron PT10-35 homogenizer. Samples were serially diluted and plated in triplicate on TSA plates, incubated overnight at 37 °C and colonies counted.
as §1

SMILES: CC[C@H](C)[C@@H]1NC(=O)[C@@H]2CSSC[C@H](NC(=O)[C@H]([C@@H](C)CC)NC(=O)[C@@H]3CSSC[C@H](NC1=O)C(=O)N[C@@H](C(C)C)C(=O)NCC(=O)N[C@@H](CCCNC(=N)N)C(=O)NCC(=O)N3)C(=O)N[C@@H](C(C)C)C(=O)N[C@@H](CCCNC(=N)N)C(=O)N[C@@H](CCCNC(=N)N)C(=O)N[C@@H](CCCNC(=N)N)C(=O)N2 [MTD12813] (cyclo(CICVGRGCICVRRR); disulfide 1-10, 3-8)
- release of TNF and IL-6 (human whole blood): concentration-dependently suppressed
- remaining at 48 h, 100 µg/ml [1]: > 95%
- MIC against all seven organisms of the panel [2]: 3.13 to 6.25 µg/mL
- plasma CCL4 and CXCL2 (plasma cytokines; 2 h p.i.): statistically significant reductions
- plasma IL-9 and IL-15 levels (plasma cytokines; 4 h p.i.): significant increases
- plasma TNF, IL-6 and CXCL1 (KC) (plasma cytokines; 4 h p.i.): significantly reduced
- change of plasma TNF versus saline (plasma cytokines; 24 h p.i.): -89.8%
- survival, equal quantity of peptide given immediately following infection (Kp-1705; 0.5 ml of 1.25 µg/ml i.p. after saline-preincubated Kp-1705, n = 12): no statistically significant protection
- survival after challenge with preincubated bacteria (Kp-1705; Kp-1705 preincubated 1 h with 1.25 µg/ml MTD12813, 500 µl i.p., n = 26): protected
- PLF neutrophils versus saline (neutrophils; Kp-1705 infected mice, 1.25 mg/kg i.p. 1 h p.i., 24 h, P = 0.0048): threefold increase
- blood neutrophils (neutrophils; Kp-1705 infected mice, 1.25 mg/kg i.p. 1 h p.i., peak at ca. 2 h p.i.): transient peripheral blood neutrophilia
- PLF neutrophil numbers in sham-infected mice (neutrophils; sham-infected mice, 24 h after peptide delivery): no increase in neutrophil numbers
